Assay results taken from patent US5322846A, “4-methylthiazole derivatives, their methods of preparation and the pharmaceutical compositions in which they are present” (Institut de Recherches Chimiques et Biologiques Appliquees …, priority 1990, dated 1994).
Where a name gives a salt, the structure may show the parent alone. Read-outs that look alike come from different tables or passages of the source.

Key:
[1] = tested on: femoral blood pressure and heart rate; assay: Cardiovascular activity (blood pressure and heart rate) in anesthetized rats; type: in vivo; conditions: for Heart rate, maximum effect in % / ED25: I.V., pentobarbital-anesthetized rats; for ED25: Rattus norvegicus, iv, 25% drop in average blood pressure
Procedure: The cardiovascular effects of three products were studied in rats anesthetized with pentobarbital and placed under artificial respiration. The femoral blood pressure and the heart rate are recorded by means of a GOULD-BRUSH apparatus.
The products are administered intravenously in increasing doses. Three animals are tested per product. The dose which causes a 25% drop in average blood pressure (ED25) was evaluated for each product and compared with nicardipine 1 to 5 min after administration.
The products have dose-dependent hypotensive effects but have little or no effect on the heart rate (Table 7). The most hypotensive in terms of the effective dose is B 1395 (ED25 of 0.004 mg.kg^-1).

[2] = target: T1, postsynaptic alpha-adrenergic receptors (Rattus norvegicus, UniProt P43140); assay: Alpha-blocking activity towards norepinephrine on isolated rat vas deferens; type: biochemical; conditions: -log of concentration requiring doubled norepinephrine, read-out: pA2 (converted)
T1 construct: causes contraction of the isolated vas deferens; from tissue; host or cells: isolated rat vas deferens
T1 sequence (P43140 1-466): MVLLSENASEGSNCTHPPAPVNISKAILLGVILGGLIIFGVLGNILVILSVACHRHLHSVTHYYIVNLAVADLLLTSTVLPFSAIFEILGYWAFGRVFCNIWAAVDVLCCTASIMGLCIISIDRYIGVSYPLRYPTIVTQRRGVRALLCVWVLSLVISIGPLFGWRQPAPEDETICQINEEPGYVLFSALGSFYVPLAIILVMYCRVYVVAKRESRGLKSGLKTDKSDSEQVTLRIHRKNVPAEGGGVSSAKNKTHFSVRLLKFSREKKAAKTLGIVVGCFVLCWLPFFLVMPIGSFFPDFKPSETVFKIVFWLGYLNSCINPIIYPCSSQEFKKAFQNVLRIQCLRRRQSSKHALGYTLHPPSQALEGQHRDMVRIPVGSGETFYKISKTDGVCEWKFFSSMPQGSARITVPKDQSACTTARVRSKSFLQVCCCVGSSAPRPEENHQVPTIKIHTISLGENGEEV
Procedure: Stimulation of the postsynaptic alpha-adrenergic receptors by norepinephrine causes contraction of the isolated vas deferens.
The concentration of product in whose presence the norepinephrine concentration must be doubled in order to obtain the same effect as in the absence of said product is determined. The logarithm of this concentration, with the opposite sign, constitutes the pA2 of the products.
Their alpha-blocking activity is high since it appears for low concentrations of between 10^-6 M and 10^-8 M.

[3] = tested on: hypertension induced by norepinephrine; assay: Inhibitory activity towards hypertension induced by norepinephrine in anesthetized rabbits; type: in vivo; conditions: anesthetized male rabbits, intravenous; for ED50: Oryctolagus cuniculus, read-out: ID50 (50% inhibition of norepinephrine-induced hypertension)
Procedure: The blood pressure is measured by catheterization of the left carotid artery of anesthetized male rabbits. An increase in blood pressure is induced by an intravenous injection of norepinephrine. This hypertension can be inhibited by the prior administration of molecules with an alpha-blocking potential.
These are presented in Table 6 in the form of the 50% inhibitory dose (ID50), which is defined as the dose of product which, when administered intravenously, causes a 50% inhibition of the hypertension induced by norepinephrine.

[4] = tested on: lethal effect of norepinephrine; assay: Adrenolytic activity in vivo on the lethal effect of norepinephrine in rats; conditions: for ED50: Rattus norvegicus, wake male rats, norepinephrine 0.4 mg.kg^-1 intravenous, prior administration of product, read-out: ED50 (dose which protects 50% of the animals); for adrenolytic activity in the whole animals: rats, in words
Procedure: The intravenous injection of norepinephrine (0.4 mg.kg^-1) into wake male rats causes the death of 100% of the animals. The prior administration of a substance which has an alpha-blocking property makes it possible to reduce this toxicity.
The results are expressed in the form of the 50% effective dose (ED50), i.e. the dose in mg.kg^-1 which protects 50% of the animals (Table 5).

[5] = Acute toxicity in mice (oral, LD50); conditions: mouse, in vivo, male mice, single dose, 14-day observation
Procedure: The products were administered orally in a single dose to male mice with an average weight of 22 g. The mortality was recorded after a 14-day observation period.
The results are expressed in the form of the 50% lethal dose (LD50), i.e. the theoretical dose in mg.kg^-1, administered orally, which causes the death of 50% of the animals.
The majority of the molecules have an LD50 of more than 1 g.kg^-1. These are therefore products with a low toxicity after a single administration.

[6] = 1 min, 1 minute, read-out: Blood pressure: Hypotension, ED25 at 1 minute
[7] = 5 min, 5 minutes, read-out: Blood pressure: Hypotension, ED25 at 5 minutes

Row | Compound | Heart rate, maximum effect in % [1] [%] | ED25 [1, 6] [mg/kg] | ED25 [1, 7] [mg/kg] | Kb [2] [nM] | ED50 [3] [mg/kg] | ED50 [4] [mg/kg] | adrenolytic activity in the whole animals [4] | LD50 at 336 h [5] [mg/kg] | hypotensive potential compared with nicardipine ([1]; ED25 values 5 min after I.V. injection, in words) | active dose [3] | effectiveness against norepinephrine-induced hypertension ([3]; in words)
1 | CCOc1ccccc1N1CCN(CC(O)COc2scnc2C)CC1 (stereo not drawn) [B 1392, 3-(4-o-ethoxyphenylpiperazin-1-yl)-1-(4-methylthiazolyl-5-oxy)propan-2-ol] | -11.2 | 0.024 | 0.048 | 13.2 | 2.6 | 0.3 | very active | 260 |  |  | 
2 | CCOc1ccccc1N1CCN(CCOc2scnc2C)CC1 [B 1258, 4-methyl-5-[2-(4-o-ethoxyphenylpiperazin-1-yl)ethoxy]thiazole] | -5.6 | 0.8 | 1 | 15.8 | 5.6 | 6.5 | very active | > 1000 |  |  | 
3 | CCCOc1ccccc1N1CCN(CC(O)COc2scnc2C)CC1 (stereo not drawn) [B 1395, 3-(4-o-propoxyphenylpiperazin-1-yl)-1-(4-methylthiazolyl-5-oxy)propan-2-olmonohydrochloride] | -4 | 0.004 | 0.1 | 20 | 0.2 | 0.2 | very active | 515 | on a level with that of nicardipine | less than 1 mg.kg^-1 | particularly effective
